Experimental data as given in patent publication US6737433B1, “1-N-phenylamino-1H-imidazole derivatives as aromatase inhibitors and pharmaceutical compositions containing them” (Laboratoire Theramex, priority 2002, dated 2004).
Structures can show the parent of a compound that is named as a salt.

How the values were obtained:
human aromatase = molecular target: T1, human aromatase (Homo sapiens, UniProt P11511); experiment: Inhibition of human aromatase in vitro in JEG-3 cells (3H-water release from 1β-3H-androstenedione); format: cell-based; settings: 10 nM 1β-3H-androstenedione, 2 h incubation
T1 construct: The JEG-3 cell line, derived from a human placental choriocarcinoma, is intrinsically very rich in human aromatase; endogenous in cells; host or cells: JEG-3 (human placental choriocarcinoma)
T1 sequence (P11511 1-503): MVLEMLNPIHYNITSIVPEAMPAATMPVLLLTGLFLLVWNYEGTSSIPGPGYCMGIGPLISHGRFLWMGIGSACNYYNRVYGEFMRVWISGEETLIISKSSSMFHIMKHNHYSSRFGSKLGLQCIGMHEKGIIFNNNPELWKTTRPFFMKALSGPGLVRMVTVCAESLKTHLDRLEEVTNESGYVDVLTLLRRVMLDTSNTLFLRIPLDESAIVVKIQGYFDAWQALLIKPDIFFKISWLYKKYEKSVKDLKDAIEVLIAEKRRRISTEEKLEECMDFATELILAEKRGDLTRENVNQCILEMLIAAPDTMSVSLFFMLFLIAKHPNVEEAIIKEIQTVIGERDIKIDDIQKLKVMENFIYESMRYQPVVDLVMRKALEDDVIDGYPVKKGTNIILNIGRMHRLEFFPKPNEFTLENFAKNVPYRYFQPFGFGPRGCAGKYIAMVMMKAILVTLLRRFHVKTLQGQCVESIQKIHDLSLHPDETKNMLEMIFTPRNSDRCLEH
Description: Stocks of JEG-3 cells are grown up to 80% of confluence as monolayers in plastic flasks in minimum Eagle's medium with 1 g/l glucose and 10% decomplemented fetal calf serum at pH 7.4 and 37° C., under a 5% CO2 atmosphere. Then, 24 hours before aromatase activity measurement, JEG-3 cells are distributed for seeding in 96-well microplates (60,000 to 100,000 viable cells in 100 μl of culture medium per well); 24 hours later, microplates are rinsed and fresh medium containing the radioactive aromatase substrate (1β-^3H-androstenedione, 10 nM) is added together with test compounds dissolved with 1% dimethylsulfoxyde in a test concentration range between 10^−11 and 10^−4 M in a total volume of 150 μl.
Two hours after the beginning of the incubation, 100 μl of the supernatants are transferred to homologous new 96-well microplates. A solution of dextran-coated charcoal (1%) is added in each well (100 μl/well); after standing for 10 minutes on ice, microplates are centrifuged (1500 g) for 10 more minutes at 4° C. All steroids, including the radioactive substrate and the newly biosynthesized estrogens, are trapped complexed by the charcoal; only the ^3H-water specifically formed during aromatisation of 1β-^3H-androstenedione, involving a specific oxidative step removing the 1β-^3H, remains in the supernatant at this stage.
Finally, aromatase activity is expressed in fmoles/μg DNA in 2 hours and aromatase inhibition in percentage of control incubation without inhibitors.

Compound	IC50 (human aromatase) [nM]	melting point [°C]
N#Cc1ccc(N(Cc2ccc(Br)cc2)n2ccnc2)cc1 [Example 20, 4-[N-(1H-imidazol-1-yl)-N-(4-bromophenylmethyl)amino]benzonitrile]	0.22 ± 0.05	–
COc1ccc(CN(c2ccc(C#N)cc2)n2ccnc2)cc1 (as salt: hydrochloride) [Example 8, 4-[N-(1H-imidazol-1-yl)-N-(4-methoxyphenylmethyl)amino]benzonitrile]	–	178
N#Cc1ccc(N(Cc2ccc(Cl)cc2)n2ccnc2)cc1 (as salt: hydrochloride) [Example 7, 4-[N-(1H-imidazol-1-yl)-N-(4-chlorophenylmethyl)amino]benzonitrile]	–	190
N#Cc1ccc(N(c2ccc(C#N)cc2)n2ccnc2)cc1 (as salt: hydrochloride) [Example 13, 4,4′-[N-(1H-imidazol-1-yl)amino]bis-benzonitrile]	–	199
COC(=O)c1ccc(CN(c2ccc(C#N)cc2)n2ccnc2)cc1 [Example 27, Methyl 4-[N-(4-cyanophenyl)-N-(1H-imidazol-1-yl)aminomethyl]benzoate]	–	178
Cn1nnc2ccc(N(Cc3ccc(C#N)cc3)n3ccnc3)cc21 [Example 22, 4-[N-(1-methylbenzotriazol-6-yl)-N-(1H-imidazol-1-yl)aminomethyl]benzonitrile]	0.2 ± 0.05	184
N#Cc1ccc(N(c2ccc(C(F)(F)F)cc2)n2ccnc2)cc1 [Example 5, 4-[N-(1H-imidazol-1-yl)-N-(4-trifluoromethylphenyl)amino]benzonitrile]	0.54 ± 0.26	–
COc1ccc(CN(c2ccc(C#N)cc2)n2ccnc2)cc1F (as salt: hydrochloride) [Example 9, 4-[N-(1H-imidazol-1-yl)-N-(3-fluoro-4-methoxyphenylmethyl)amino]benzonitrile]	–	190
N#Cc1ccc(N(Cc2ccc(F)cc2)n2ccnc2)cc1 (as salt: hydrochloride) (hydrate or solvate) [Example 14, 4-[N-(1H-imidazol-1-yl)-N-(4-fluorophenylmethyl)amino]benzonitrile]	–	176 to 178
N#Cc1ccc(N(c2ccc(C#N)cc2)n2ccnc2)cc1 [Example 13, 4,4′-[N-(1H-imidazol-1-yl)amino]bis-benzonitrile]	0.44 ± 0.04	–
CSc1ccc(CN(c2ccc(C#N)cc2)n2ccnc2)cc1 [Example 15, 4-[N-(1H-imidazol-1-yl)-N-(4-methylthiophenylmethyl)amino]benzonitrile]	0.21 ± 0.05	128
COc1ccc(CN(c2ccc(C#N)cc2)n2ccnc2)cc1F [Example 9, 4-[N-(1H-imidazol-1-yl)-N-(3-fluoro-4-methoxyphenylmethyl)amino]benzonitrile]	0.16 ± 0.06	–
Cc1ccc(CN(c2ccc(C#N)cc2)n2ccnc2)cc1 [Example 10, 4-[N-(1H-imidazol-1-yl)-N-(4-methylphenylmethyl)amino]benzonitrile]	0.14 ± 0.03	156
N#Cc1ccc(CN(c2ccc(C#N)cc2)n2ccnc2)cc1 (as salt: hydrochloride) [Example 11, 4-[N-(1H-imidazol-1-yl)-N-(4-cyanophenylmethyl)amino]benzonitrile]	–	195
COc1ccc(CN(c2ccc(C#N)cc2)n2ccnc2)cc1 [Example 8, 4-[N-(1H-imidazol-1-yl)-N-(4-methoxyphenylmethyl)amino]benzonitrile]	0.14 ± 0.05	–
N#Cc1ccc(N(c2ccc(C#N)cc2C(F)(F)F)n2ccnc2)cc1 [Example 25, 4-[N-(1H-imidazol-1-yl)-N-(4-cyanophenyl)amino]-3-trifluoromethylbenzonitrile]	0.66 ± 0.14	166

Second part, the compound after the results:

IC50 (human aromatase) [nM]	melting point [°C]	Compound
0.35 ± 0.07	–	CS(=O)(=O)c1ccc(CN(c2ccc(C#N)cc2)n2ccnc2)cc1 [Example 16, 4-[N-(1H-imidazol-1-yl)-N-(4-methylsulfonylphenylmethyl)amino]benzonitrile]
–	125	N#Cc1ccc(N(Cc2ccc(Br)cc2)n2ccnc2)cc1 (as salt: hydrochloride) [Example 20, 4-[N-(1H-imidazol-1-yl)-N-(4-bromophenylmethyl)amino]benzonitrile]
0.48 ± 0.13	226	N#Cc1ccc(CN(c2ccc(C#N)cc2C(F)(F)F)n2ccnc2)cc1 [Example 23, 4-[N-(1H-imidazol-1-yl)-N-(4-cyanophenylmethyl)amino]-3-trifluoromethylbenzonitrile]
1.12 ± 0.55	138	N#Cc1ccc(CN(c2ccc(Br)cc2)n2ccnc2)cc1 [Example 21, 4-[N-(1H-imidazol-1-yl)-N-(4-bromophenyl)aminomethyl]benzonitrile]
1.16 ± 0.55	152	Cc1cn(N(Cc2ccc(Br)cc2)c2ccc(C#N)cc2)cn1 [Example 30, 4-[N-(4-methyl-1H-imidazol-1-yl)-N-(4-bromophenylmethyl)amino]benzonitrile]
0.18 ± 0.09	107	N#Cc1ccc(N(Cc2ccccc2)n2ccnc2)cc1 [Example 24, 4-[N-(1H-imidazol-1-yl)-N-(phenylmethyl)amino]benzonitrile]
0.4 ± 0.06	170	N#Cc1ccc(N(Cc2cc(F)cc(F)c2)n2ccnc2)cc1 [Example 19, 4-[N-(1H-imidazol-1-yl)-N-(3,5-difluorophenylmethyl)amino]benzonitrile]
–	167	COc1ccc(CN(c2ccc(C#N)cc2)n2ccnc2)cc1OC (as salt: hydrochloride) [Example 12, 4-[N-(1H-imidazol-1-yl)-N-(3,4-dimethoxyphenylmethyl)amino]benzonitrile]
1.57 ± 0.74	113	N#Cc1ccc(N(c2ccc(F)cc2)n2ccnc2)cc1 [Example 28, 4-[N-(1H-imidazol-1-yl)-N-(4-fluorophenyl)amino]benzonitrile]
0.58 ± 0.18	152	Cc1cncn1N(Cc1ccc(Br)cc1)c1ccc(C#N)cc1 [Example 31, 4-[N-(5-methyl-1H-imidazol-1-yl)-N-(4-bromophenylmethyl)amino]benzonitrile]
0.14 ± 0.01	149	N#Cc1ccc(N(Cc2ccc(F)cc2F)n2ccnc2)cc1 [Example 18, 4-[N-(1H-imidazol-1-yl)-N-(2,4-difluorophenylmethyl)amino]benzonitrile]
0.13 ± 0.05	112	N#Cc1ccc(N(Cc2cccc(F)c2)n2ccnc2)cc1 [Example 26, 4-[N-(1H-imidazol-1-yl)-N-(3-fluorophenylmethyl)amino]benzonitrile]
0.19 ± 0.05	122	N#Cc1ccc(N(Cc2cccc(C(F)(F)F)c2)n2ccnc2)cc1 [Example 29, 4-[N-(1H-imidazol-1-yl)-N-(3-trifluoromethylphenylmethyl)amino]benzonitrile]
–	150	Cc1ncn(N(Cc2ccc(Br)cc2)c2ccc(C#N)cc2)c1C [Example 32, 4-[N-(4,5-dimethyl-1H-imidazol-1-yl)-N-(4-bromophenylmethyl)amino]benzonitrile]
